Measured values published in US7214669B2, “Tetracycline derivatives and methods of use thereof” (Tetragenex Pharmaceuticals, Inc., priority 2001, dated 2007).
“And” between values parts separate entries of the source, which are not always exact repeats. Equal entries are not always repeated. Structures can show the parent of a compound that is named as a salt.

Experiments:
[1] = target: T1, MMP2 (Gelatinase A) (Homo sapiens, UniProt P08253); assay: MMP2 (Gelatinase A) inhibition, 14C gelatin release; type: biochemical; settings: 37° C., 16 hours; read-out: MMP-2 inhibitory activity, IC50
T1 sequence (P08253 110-660): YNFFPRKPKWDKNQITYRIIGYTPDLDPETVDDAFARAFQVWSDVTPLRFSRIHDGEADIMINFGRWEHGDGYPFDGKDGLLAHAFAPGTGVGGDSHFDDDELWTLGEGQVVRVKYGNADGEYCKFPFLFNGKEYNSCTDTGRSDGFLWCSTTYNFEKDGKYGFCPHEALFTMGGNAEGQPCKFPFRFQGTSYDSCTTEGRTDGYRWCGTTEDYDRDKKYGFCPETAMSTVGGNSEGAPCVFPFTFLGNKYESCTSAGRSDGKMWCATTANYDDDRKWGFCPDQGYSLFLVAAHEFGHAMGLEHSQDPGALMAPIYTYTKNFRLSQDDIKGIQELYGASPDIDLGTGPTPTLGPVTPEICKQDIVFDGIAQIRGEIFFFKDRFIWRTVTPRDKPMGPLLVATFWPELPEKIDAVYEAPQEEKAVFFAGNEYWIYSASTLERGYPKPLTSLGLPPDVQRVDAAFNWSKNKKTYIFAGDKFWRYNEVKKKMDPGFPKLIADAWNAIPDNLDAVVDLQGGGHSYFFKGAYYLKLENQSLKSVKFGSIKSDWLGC

[2] = target: Human recombinant MMP9 (Homo sapiens, UniProt P14780); assay: MMP9 (Gelatinase B) inhibition, 14C gelatin release; type: biochemical; settings: 37° C., 16 hours; read-out: MMP-9 inhibitory activity, IC50
[3] = target: Human recombinant MMP3 (Homo sapiens, UniProt P08254); assay: MMP3 (Stromelysin 1) inhibition, 14C casein release; type: biochemical; settings: 37° C., 16 hours; read-out: MMP-3 inhibitory activity, IC50
Method: Protocol for Measuring MMP3 (Stromelysin 1) Inhibition
• 100 μg ^14C casein (7000 dpm) • 50 mM Tris HCl, pH 7.9 • 15 mM CaCl2, 0.02% azide • Human recombinant MMP3, 0.25–1.0 nM • ±tetracycline (up to 1 mM) in a total volume of 250 μl.
Incubations were at 37° C. for 16 hours. The reaction was stopped by the addition of 500 μl cold 18% TCA and standing on ice for 15 minutes. TCA precipitates were removed by centrifugation at 10,000 g for 10 minutes at 4° C. and 200 μl supernatant was taken for scintillation counting. Only data derived from within the linear part of the assay (10–60% lysis) were utilized. The percentage inhibition of MMP3 by each concentration of the candidate tetracycline was plotted to derive the IC50 value, using linear regression analysis.

[4] = target: Human recombinant MMP14 (Homo sapiens, UniProt P50281); assay: MMP14 (MTI-MMP) inhibition, 14C collagen release; type: biochemical; settings: 35° C., 15 hours; read-out: MMP-14 inhibitory activity, IC50
Method: Protocol for Measuring MMP14 (MTI-MMP) Inhibition by Tetracycline Derivatives
MMP14 activity was determined by the release of soluble ^14C labelled collagen fragments from ^14C acetylated rat skin type I collagen (Methods in Enzymology 80 711, 1981).
• 100 μg ^14C labelled collagen (5–6000 dpm) • 50 mM Tris HCL pH 7.9 • 15 mM CaCl2 0.02% azide • Human recombinant MMP14 50–100 nM • ±Tetracycline (up to 1 mM) in a total volume of 300 μl.
Incubations were at 35° C. for 15 hours. Uncleaved collagen fibrils (which form within the first 10 minutes) were removed by centrifugation at 10,000 g 4° C. 10 minutes 200 μl supernatant were counted in Packard Opti Phase Supermix scintillation fluid using a scintillation counter. Only data derived from within the linear part of the assay (10–70% lysis of the collagen) were utilized. Based on percentage inhibition of the activity of MMP1 alone by a range of concentrations of each sample, the IC50 value for each tetracycline was calculated.

[5] = target: T2, Human recombinant MMP1 (Homo sapiens, UniProt P03956); assay: MMP1 (Collagenase-1) inhibition, 14C collagen release; type: biochemical; settings: 35° C., 5 hours; read-out: MMP-1 inhibitory activity, IC50
T2 sequence (P03956 100-469): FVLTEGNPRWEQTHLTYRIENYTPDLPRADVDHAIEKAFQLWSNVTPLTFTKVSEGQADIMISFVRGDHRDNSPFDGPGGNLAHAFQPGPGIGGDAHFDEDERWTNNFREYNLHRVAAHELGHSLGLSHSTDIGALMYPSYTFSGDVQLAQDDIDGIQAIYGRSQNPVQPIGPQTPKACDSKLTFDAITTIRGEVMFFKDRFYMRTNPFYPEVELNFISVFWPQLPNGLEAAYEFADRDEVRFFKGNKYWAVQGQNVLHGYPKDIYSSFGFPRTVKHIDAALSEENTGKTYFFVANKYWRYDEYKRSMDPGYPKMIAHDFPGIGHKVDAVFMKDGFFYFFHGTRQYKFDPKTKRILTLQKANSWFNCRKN

[6] = system: C8161 human melanoma cells; assay: Membrane Invasion Culture System (MICS) chemo-invasion assay; type: cell-based; settings: 25 ug/mL; 24 hours; + = increased invasiveness
From the text: (§1) Another objective was to analyze the effects of specific, tetracycline derived compounds on the in-vitro chemo-invasive potential of: • C8161 human melanoma cells • MDA-MB-231 human breast cancer cells • PC3 human prostate cancer cells • RPM18226 human myeloma cancer cells • Ark human myeloma cancer cells • Arp-1 human myeloma cancer cells
(§2) The Membrane Invasion Culture System (MICS) in vitro chemo-invasion assay was chosen to measure changes in the invasive potential of specific human cancer cells in response to tetracycline derived compounds. Stock solutions of each compound were hydrated in water containing 2% DMSO and pH 10.0. Upon solubilization, HCl was added to the solution to establish a pH of 7.5–8.0. This solution was then wrapped in foil and kept at 4° C. during the 24 hours of assay. Fresh compound was prepared for each assay. The in vitro chemoinvasion analyses for tumor cell invasiveness are performed using the Membrane Invasion Culture System (MICS) as previously described.
(§3) The MICS system is a thermally treated plastic manifold system consisting of two matched sets of plates containing fourteen wells, 13 mm in diameter. Interposed between these plates was a polycarbonate filter containing 10 μm pores and coated with a defined matrix composed of human laminin/collagen IV/gelatin that formed a 35 μm thick barrier between the top and bottom sections of the wells in MICS. Prior to placing this barrier in place, the lower wells were filled with serum-free RPMI culture medium made 50% in conditioned medium obtained from 2-day-old cultures of human fibroblasts which had been cleared of cells and cellular debris by either centrifugation, or filtering through a 0.45 μm sterile filter. The barrier was then placed on the lower wells and fresh serum-free medium added to the upper wells after assembly of the system. Fifty thousand tumor cells were then added to the wells either in the presence of the compound, or the DMSO vehicle (the controls). Of the 12 assay wells on each manifold, 3 randomized wells acted as controls, 3 wells received 1 μg/ml of compound, 3 received 10 μg/ml and 3 received 25 μg/ml. After 24 hours, cells and media were removed from the lower wells and replaced by phosphate buffered saline plus 2 mM EDTA. This solution was used to remove all cells from the lower well, and this wash was added to the recovered cells plus medium from the same well. These samples were then collected onto a polylysine containing polycarbonate membrane containing 3 μm pores using a Dot-Blot manifold system. These collection filters were then fixed in methanol, and stained using Wright's stain (Leukostat staining kit) in situ. The filters were then mounted on microscope slides with microscope immersion oil (which reduced the light refraction from the pores) and 5 microscopic fields were counted to calculate the number of cells which invaded through the membrane over the 24 hour period. These numbers were then statistically analyzed as discussed below.

[7] = system: PC-3 ML human prostate cancer cells; assay: as above; type: cell-based; settings: 24 hours, + = increased invasiveness
From the text: as §1, §2, §3

[8] = system: MDA-MB-231 human breast cancer cells; assay: as above; type: cell-based; settings: 25 ug/mL; 24 hours; + = increased invasiveness
From the text: as §1, §2, §3

Human recombinant MMP3, sequence (P08254 100-477): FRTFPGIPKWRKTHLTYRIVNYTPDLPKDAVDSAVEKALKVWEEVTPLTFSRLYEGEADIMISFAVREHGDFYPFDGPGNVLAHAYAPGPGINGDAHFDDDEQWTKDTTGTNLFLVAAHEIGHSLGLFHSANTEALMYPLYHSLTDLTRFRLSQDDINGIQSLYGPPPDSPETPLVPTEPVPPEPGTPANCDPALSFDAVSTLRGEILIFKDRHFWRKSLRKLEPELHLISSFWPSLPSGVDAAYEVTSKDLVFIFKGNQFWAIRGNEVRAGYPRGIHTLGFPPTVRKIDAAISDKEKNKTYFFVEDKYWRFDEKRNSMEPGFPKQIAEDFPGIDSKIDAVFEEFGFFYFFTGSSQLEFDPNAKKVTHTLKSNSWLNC
Human recombinant MMP9, sequence (P14780 94-707): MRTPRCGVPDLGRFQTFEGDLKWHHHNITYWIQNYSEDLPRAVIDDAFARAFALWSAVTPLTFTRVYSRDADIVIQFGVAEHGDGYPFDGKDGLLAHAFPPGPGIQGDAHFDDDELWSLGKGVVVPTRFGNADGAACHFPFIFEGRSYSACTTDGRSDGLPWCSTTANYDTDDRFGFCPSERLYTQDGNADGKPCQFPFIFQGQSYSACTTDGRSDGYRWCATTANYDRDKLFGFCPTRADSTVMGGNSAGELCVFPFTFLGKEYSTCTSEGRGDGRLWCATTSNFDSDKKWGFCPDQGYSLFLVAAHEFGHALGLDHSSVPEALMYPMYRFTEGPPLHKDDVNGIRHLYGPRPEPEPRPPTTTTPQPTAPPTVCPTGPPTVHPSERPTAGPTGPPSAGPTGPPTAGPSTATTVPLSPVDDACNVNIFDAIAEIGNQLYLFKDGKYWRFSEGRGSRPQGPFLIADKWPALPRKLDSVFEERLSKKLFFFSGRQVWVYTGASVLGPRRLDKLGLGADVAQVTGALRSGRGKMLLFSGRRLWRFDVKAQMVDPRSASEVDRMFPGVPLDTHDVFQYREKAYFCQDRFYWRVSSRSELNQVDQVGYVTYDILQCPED

With `CC1c2c(N(CCC(C)(C)C)CCC(C)(C)C)ccc(O)c2C(=O)C2=C(O)C3(O)C(=O)C(C(N)=O)=C(O)C(N(C)C)C3C(O)C21` (stereo not shown) [Compound 19, 7-Di-(3,3-dimethylbutyl)amino-6-deoxy-5-hydroxytetracycline H2SO4] the IC50 [1] was 925 µM, the IC50 [2] was 98 µM and the IC50 [3] was 394 µM. For the same compound, the IC50 [4] was 90 µM and the IC50 [5] was 270 µM.

`CC1c2c(N=[N+]=[N-])ccc(O)c2C(=O)C2=C(O)C3(O)C(=O)C(C(N)=O)=C(O)C(N(C)C)C3C(O)C21` (stereo not shown) [Compound 20, 7-Azido-6-deoxy-5-hydroxy-tetracycline H2SO4] was tested, and the IC50 [1] was 511 µM, the IC50 [2] was 162 µM and the IC50 [3] was 281 µM. For the same compound, the IC50 [4] was 266 µM and the IC50 [5] was 429 µM.

`CC1c2c([N+]#N)ccc(O)c2C(=O)C2=C(O)C3(O)C(=O)C(C(N)=O)=C(O)C(N(C)C)C3C(O)C21` (stereo not shown) [Compound 21, 6-Deoxy-5-hydroxytetracycline-7-diazonium H2SO4] was tested, and the IC50 [1] was over 1000 µM, the IC50 [2] was 79 µM and the IC50 [3] was over 1000 µM. It also gave an IC50 [4] of 115 µM and an IC50 [5] of 293 µM.

`CC(=O)Nc1cc([N+](=O)[O-])c(O)c2c1C(C)C1C(=C(O)C3(O)C(=O)C(C(N)=O)=C(O)C(N(C)C)C3C1O)C2=O` (stereo not shown) [Compound 22, 7-Acetamido-9-nitro-6-deoxy-5-hydroxytetracycline H2SO4] gave an IC50 [1] of 254 µM, an IC50 [2] of 341 µM and an IC50 [3] of 462 µM. For the same compound, the IC50 [4] was 459 µM and the IC50 [5] was 396 µM.

In the case of `CC(=O)Nc1ccc(O)c2c1C(C)C1C(=C(O)C3(O)C(=O)C(C(N)=O)=C(O)C(N(C)C)C3C1O)C2=O` (stereo not shown) [Compound 23, 7-Acetamido-6-deoxy-5-hydroxytetracycline H2SO4], the IC50 [1] is reported as 306 µM, the IC50 [2] is reported as over 1000 µM and the IC50 [3] is reported as over 1000 µM. The IC50 [4] was over 1000 µM and the IC50 [5] was over 1000 µM.

Work on `CCCN(CCC)c1ccc(O)c2c1C(C)C1C(=C(O)C3(O)C(=O)C(C(N)=O)=C(O)C(N(C)C)C3C1O)C2=O` (stereo not shown) [Compound 24, 7-Di-n-propylamino-6-deoxy-5-hydroxytetracycline H2SO4] yielded an IC50 [1] of 724 µM, an IC50 [2] of 127 µM and an IC50 [3] of 191 µM. It also gave an IC50 [4] of 160 µM and an IC50 [5] of 405 µM.

For `CC(C)CNc1ccc(O)c2c1C(C)C1C(=C(O)C3(O)C(=O)C(C(N)=O)=C(O)C(N(C)C)C3C1O)C2=O` (stereo not shown) [Compound 25, 7-Isobutylamino-6-deoxy-5-hydroxytetracycline H2SO4], the IC50 [1] was 397 µM, the IC50 [2] was 148 µM and the IC50 [3] was 303 µM. It also gave an IC50 [4] of 185 µM and an IC50 [5] of 974 µM.

With `CC(=O)Nc1cc(N)c(O)c2c1C(C)C1C(=C(O)C3(O)C(=O)C(C(N)=O)=C(O)C(N(C)C)C3C1O)C2=O` (stereo not shown) [Compound 26, 7-Acetamido-9-amino-6-deoxy-5-hydroxytetracycline H2SO4] the IC50 [1] was 413 µM, the IC50 [2] was 384 µM and the IC50 [3] was over 1000 µM. The IC50 [4] was 586 µM and the IC50 [5] was over 1000 µM.

For `CC(=O)Nc1cc([N+]#N)c(O)c2c1C(C)C1C(=C(O)C3(O)C(=O)C(C(N)=O)=C(O)C(N(C)C)C3C1O)C2=O` (stereo not shown) [Compound 30, 7-Acetamido-6-deoxy-5-hydroxytetracycline-9-diazonium H2SO4], the IC50 [1] was over 1000 µM, the IC50 [2] was over 1000 µM and the IC50 [3] was 938 µM. The IC50 [4] was over 1000 µM and the IC50 [5] was 576 µM.

Compound `C[C@H]1c2c(N(C)C)cc([N+]#N)c(O)c2C(=O)C2=C(O)[C@]3(O)C(=O)C(C(N)=O)=C(O)[C@@H](N(C)C)[C@@H]3[C@@H](O)[C@@H]21` [Compound 31, 7-Dimethylamino-6-deoxy-5-hydroxytetracycline-9-diazonium H2SO4] has an IC50 [1] of 258 µM, an IC50 [2] of 311 µM and an IC50 [3] of over 1000 µM. For the same compound, the IC50 [4] was 593 µM and the IC50 [5] was 621 µM.

Work on `CC1c2c(NC3CCC3)ccc(O)c2C(=O)C2=C(O)C3(O)C(=O)C(C(N)=O)=C(O)C(N(C)C)C3C(O)C21` (stereo not shown) [Compound 32, 7-Cyclobutylamino-6-deoxy-5-hydroxytetracycline H2SO4] yielded an IC50 [1] of 236 µM, an IC50 [2] of 214 µM and an IC50 [3] of 244 µM. It also gave an IC50 [4] of 197 µM and an IC50 [5] of 601 µM.

Compound `CC1c2cccc(O)c2C(=O)C2=C(O)C3(O)C(=O)C(C(N)=O)=C(O)CC3C(O)C21` (stereo not shown) [Compound 34, 4-Dedimethylamino-6-deoxy-5-hydroxytetracycline] has an IC50 [1] of 242 µM, an IC50 [2] of 308 µM and an IC50 [3] of 136 µM. It also gave an IC50 [4] of 197 µM and an IC50 [5] of 242 µM.

For `CC1c2ccc([N+](=O)[O-])c(O)c2C(=O)C2=C(O)C3(O)C(=O)C(C(N)=O)=C(O)CC3C(O)C21` (stereo not shown) [Compound 35, 4-Dedimethylamino-6-deoxy-5-hydroxy-9-nitrotetracycline], the IC50 [1] was 249 µM, the IC50 [2] was 397 µM and the IC50 [3] was 218 µM. It also gave an IC50 [4] of 108 µM and an IC50 [5] of 947 µM.

`CC1c2ccc(N)c(O)c2C(=O)C2=C(O)C3(O)C(=O)C(C(N)=O)=C(O)CC3C(O)C21` (stereo not shown) [Compound 36, 9-animo-4-dedimethylamino-6-deoxy-5-hydroxytetracycline sulfate] gave an IC50 [1] of over 1000 µM, an IC50 [2] of over 1000 µM and an IC50 [3] of 283 µM. It also gave an IC50 [4] of 608 µM and an IC50 [5] of 539 µM.

`CC1c2c([N+](=O)[O-])cc(C(C)(C)C)c(O)c2C(=O)C2=C(O)C3(O)C(=O)C(C(N)=O)=C(O)C(N(C)C)C3C(O)C21` (stereo not shown) [Compound 38, 7-nitro-9-tertbutyl-6-deoxy-5-hydroxytetracycline H2SO4] was tested, and the IC50 [1] was 175 µM, the IC50 [2] was 215 µM and the IC50 [3] was 95 µM. For the same compound, the IC50 [4] was 69 µM, the “percent inhibition, C8161 (Melanoma)” value [6] was 66^B percent and 39% and the “percent inhibition, PC-3 ML (Prostrate)” value ([7]; 1 ug/mL) was 37^B percent and 38^B percent. For the same compound, the “percent inhibition, PC-3 ML (Prostrate)” value ([7]; 10 ug/mL) was 41^B percent and 27^B percent, the “percent inhibition, PC-3 ML (Prostrate)” value ([7]; 25 ug/mL) was 41% and 52% and the “percent inhibition, MDA-MB-231 (Breast)” value [8] was 70^B percent and 37%. For the same compound, the IC50 [5] was 230 µM.

`C[C@H]1c2c(N)ccc(O)c2C(=O)C2=C(O)[C@]3(O)C(=O)C(C(N)=O)=C(O)C[C@@H]3[C@@H](O)[C@@H]21` [Compound 48, 4-Dedimethylamino-7-amino-6-deoxy-5-hydroxyltetracycline H2SO4] showed an IC50 [1] of 1930 µM, an IC50 [2] of 424 µM and an IC50 [3] of 506 µM. For the same compound, the IC50 [4] was 354 µM and the IC50 [5] was 12800 µM.
